The source of these data is article PMC5750217 (Nature Communications, 2018).

Test [1] concerns the target T1, ASCT1 (Homo sapiens, UniProt P43007).
T1 construct: expressed in transfected cells; host or cells: Xenopus laevis oocytes (cRNA injection)
T1 sequence (P43007 1-532): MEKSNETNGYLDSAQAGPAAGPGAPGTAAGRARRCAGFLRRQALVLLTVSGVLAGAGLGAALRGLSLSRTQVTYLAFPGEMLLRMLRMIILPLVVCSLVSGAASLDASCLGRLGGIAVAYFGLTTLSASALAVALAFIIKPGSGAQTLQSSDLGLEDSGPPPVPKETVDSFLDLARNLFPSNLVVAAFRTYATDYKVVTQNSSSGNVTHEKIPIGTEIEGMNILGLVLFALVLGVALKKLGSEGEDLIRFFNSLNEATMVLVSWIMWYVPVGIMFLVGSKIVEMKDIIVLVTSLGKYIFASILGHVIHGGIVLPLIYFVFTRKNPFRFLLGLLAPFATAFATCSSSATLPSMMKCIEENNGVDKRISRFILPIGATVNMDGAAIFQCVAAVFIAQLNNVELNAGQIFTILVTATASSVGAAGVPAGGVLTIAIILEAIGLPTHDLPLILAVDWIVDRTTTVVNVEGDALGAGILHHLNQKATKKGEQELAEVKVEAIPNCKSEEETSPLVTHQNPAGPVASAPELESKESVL
Kind of test: Two electrode voltage clamp, substrate-activated anion current in oocytes expressing ASCT1. The format is cell-based. The protocol:
(§1) All chemicals were obtained from Sigma unless otherwise stated. Stage V oocytes were harvested from female Xenopus laevis (frogs) which were obtained from Nasco (Fort Alkinson, USA). Frogs were anaesthetised with 6.5 mM tricaine neutralised with 7.14 mM sodium bicarbonate. After making an incision in the abdomen of the frog, ovarian sacs were removed and stored in OR-2 buffer (82.5 mM NaCl, 2 mM KCl, 1 mM MgCl2, 5 mM hemisodium HEPES, pH 7.5). This surgical procedure follows a protocol (#2016/970) approved by the University of Sydney Animal Ethics Committee under the Australian Code of Practice for the Care and Use of Animals for Scientific Purposes. […]
(§2) After 2–4 days of microinjection, current recordings were made using the two electrode voltage clamp technique with a Geneclamp 500 amplifier (Axon Instruments, Foster City, CA) interfaced with a MacLab 2e chart recorder (ADI Instruments, Sydney, Australia) using the chart software, and a Digidata 1322A (Axon Instruments) controlled by an IBM-compatible computer using the pClamp software (version 10, Molecular Devices, Union City, CA). […] Current–voltage relationships were calculated by subtracting steady state current measurements in the absence of substrate from corresponding current measurements in the presence of substrate. […]

Test [2] addresses T2, ASCT2 (Homo sapiens, UniProt Q15758).
T2 sequence (Q15758 1-541): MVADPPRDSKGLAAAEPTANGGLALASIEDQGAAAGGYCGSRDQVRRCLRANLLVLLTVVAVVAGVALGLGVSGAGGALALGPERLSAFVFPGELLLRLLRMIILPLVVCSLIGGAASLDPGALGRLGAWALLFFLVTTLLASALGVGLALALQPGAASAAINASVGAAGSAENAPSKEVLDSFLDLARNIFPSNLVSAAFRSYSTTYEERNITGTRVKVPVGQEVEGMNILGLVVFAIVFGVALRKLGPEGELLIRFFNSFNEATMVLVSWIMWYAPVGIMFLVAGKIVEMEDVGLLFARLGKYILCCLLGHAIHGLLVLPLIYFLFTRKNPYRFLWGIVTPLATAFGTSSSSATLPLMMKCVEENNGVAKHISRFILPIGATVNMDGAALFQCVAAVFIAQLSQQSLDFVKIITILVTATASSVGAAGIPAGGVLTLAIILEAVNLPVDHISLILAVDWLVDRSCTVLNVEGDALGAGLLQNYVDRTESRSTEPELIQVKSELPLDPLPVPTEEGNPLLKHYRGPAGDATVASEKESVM
Kind of test: Two electrode voltage clamp, substrate-activated anion current in oocytes expressing ASCT2. The format is cell-based. On the procedure:
as §1, §2

In test [1] (ASCT1 in oocytes, NO3−-containing buffer, current at +60 mV, dash = substrate did not generate currents), `N[C@@H](CO)C(=O)O` [L-serine] came in with an EC50 of 100 ± 20 µM.
Take `N[C@@H](CCC(=O)Nc1ccc([N+](=O)[O-])cc1)C(=O)O` [GPNA, glutamyl-p-nitroanilide]: the “GPNA % inhibition of L-serine activated current” value in test [2] (GPNA co-applied with EC50 of L-serine, 300 µM GPNA / 1 mM GPNA (Table 1 footnote)) was determined as 90 ± 5%; in test [1] (ASCT1, GPNA co-applied with EC50 of L-serine, 300 µM GPNA / 1 mM GPNA (Table 1 footnote)), 26 ± 3%. Moreover, the half-maximal inhibitory concentration (IC50) in test [2] (co-applied with EC50 of L-serine, read-out: IC50 for inhibition of L-serine activated current) is 90 ± 20 µM.
